Measured values: US10344060B2 (priority 2013, dated 2019)

Target: hNav1.7 (Homo sapiens, UniProt Q15858)
Assay: cell-based
Format: cell-based
Conditions: for IC50: Table 12, PatchXpress, tonic block, read-out: PX hNav1.7 Tonic IC50
[1] = ratio of PX tonic IC50 values, Table 11

Sequence of hNav1.7 (Q15858 whole entry): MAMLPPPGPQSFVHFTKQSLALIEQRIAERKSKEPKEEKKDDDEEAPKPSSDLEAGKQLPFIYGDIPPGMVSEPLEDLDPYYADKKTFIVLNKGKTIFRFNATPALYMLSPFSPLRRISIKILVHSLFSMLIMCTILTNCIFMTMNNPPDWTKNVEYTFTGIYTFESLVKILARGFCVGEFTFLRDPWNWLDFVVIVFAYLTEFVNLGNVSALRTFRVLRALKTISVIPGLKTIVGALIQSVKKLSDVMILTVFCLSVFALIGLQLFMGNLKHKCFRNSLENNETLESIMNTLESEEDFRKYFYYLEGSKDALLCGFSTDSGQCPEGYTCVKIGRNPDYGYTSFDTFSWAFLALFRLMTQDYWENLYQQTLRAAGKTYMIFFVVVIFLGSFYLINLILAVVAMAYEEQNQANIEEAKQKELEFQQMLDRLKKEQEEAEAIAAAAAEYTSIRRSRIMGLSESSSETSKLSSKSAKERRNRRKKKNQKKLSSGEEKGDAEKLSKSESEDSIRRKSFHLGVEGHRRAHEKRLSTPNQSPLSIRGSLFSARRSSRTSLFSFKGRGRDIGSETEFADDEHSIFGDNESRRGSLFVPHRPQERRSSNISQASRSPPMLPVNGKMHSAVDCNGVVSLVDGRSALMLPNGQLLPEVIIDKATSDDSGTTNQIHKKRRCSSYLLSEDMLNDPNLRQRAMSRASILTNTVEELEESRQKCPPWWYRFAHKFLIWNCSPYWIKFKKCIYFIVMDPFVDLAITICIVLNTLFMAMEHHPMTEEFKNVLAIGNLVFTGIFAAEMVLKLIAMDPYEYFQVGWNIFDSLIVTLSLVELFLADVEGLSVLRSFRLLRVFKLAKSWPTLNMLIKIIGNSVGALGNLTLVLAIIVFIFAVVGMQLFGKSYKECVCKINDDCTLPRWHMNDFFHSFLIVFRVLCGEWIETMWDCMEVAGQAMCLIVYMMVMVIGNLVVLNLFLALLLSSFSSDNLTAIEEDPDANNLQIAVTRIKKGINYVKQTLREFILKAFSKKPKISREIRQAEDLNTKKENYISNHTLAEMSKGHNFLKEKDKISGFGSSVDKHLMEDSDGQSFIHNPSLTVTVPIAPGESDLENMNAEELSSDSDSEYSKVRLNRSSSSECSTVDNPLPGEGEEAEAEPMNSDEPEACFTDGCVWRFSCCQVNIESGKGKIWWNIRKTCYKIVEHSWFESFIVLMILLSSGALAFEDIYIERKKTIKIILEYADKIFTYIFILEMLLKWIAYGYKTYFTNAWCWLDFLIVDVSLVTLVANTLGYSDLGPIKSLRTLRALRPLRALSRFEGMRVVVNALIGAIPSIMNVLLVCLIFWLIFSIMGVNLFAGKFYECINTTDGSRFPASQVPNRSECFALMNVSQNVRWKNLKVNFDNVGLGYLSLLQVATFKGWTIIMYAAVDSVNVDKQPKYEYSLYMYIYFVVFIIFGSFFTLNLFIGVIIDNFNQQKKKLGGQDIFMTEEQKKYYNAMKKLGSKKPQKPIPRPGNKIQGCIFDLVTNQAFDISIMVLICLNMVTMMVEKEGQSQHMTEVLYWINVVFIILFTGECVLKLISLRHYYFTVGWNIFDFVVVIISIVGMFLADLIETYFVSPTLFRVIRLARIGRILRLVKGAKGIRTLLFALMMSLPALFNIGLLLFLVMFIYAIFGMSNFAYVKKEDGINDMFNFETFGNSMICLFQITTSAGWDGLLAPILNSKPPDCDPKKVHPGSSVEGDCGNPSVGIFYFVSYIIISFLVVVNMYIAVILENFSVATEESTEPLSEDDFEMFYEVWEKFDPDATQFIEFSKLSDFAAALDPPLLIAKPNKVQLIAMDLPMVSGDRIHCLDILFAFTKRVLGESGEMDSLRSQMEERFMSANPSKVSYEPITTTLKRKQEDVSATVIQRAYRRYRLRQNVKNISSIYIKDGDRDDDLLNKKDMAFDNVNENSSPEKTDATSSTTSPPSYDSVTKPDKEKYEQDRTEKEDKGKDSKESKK

| Structure (SMILES) | Nav1.4/Nav1.7 [1] | IC50 [nM] | Nav1.5/Nav1.7 [1] |
| --- | --- | --- | --- |
| CCCC[C@@H]1NC(=O)[C@H](Cc2c[nH]c3ccccc23)NC(=O)[C@H](CCCCN)NC(=O)[C@H](CCC(N)=O)NC(=O)[C@@H](NC(=O)[C@H](CCCCNC(=O)CCOCCOCCOCCOCCOCCOCCOCCOCCOCCOCCOCCOCCN)NC(=O)[C@@H](N)CC#N)CSSC[C@@H]2NC(=O)[C@@H]3CSSC[C@@H](C(=O)N[C@@H](CCCNC(=N)N)C(=O)N[C@@H](CCCCN)C(=O)N[C@@H](CCC(=O)O)C(=O)N[C@H](C(N)=O)[C@@H](C)CC)NC(=O)[C@H](Cc4c[nH]c5ccccc45)NC(=O)[C@H](CC(C)C)NC(=O)[C@H](CCCCN)NC(=O)[C@H](CSSC[C@H](NC(=O)[C@H]([C@@H](C)O)NC(=O)[C@H](Cc4c[nH]c5ccccc45)NC1=O)C(=O)N[C@@H](CC(=O)O)C(=O)N[C@@H](CO)C(=O)N[C@@H](CCCCN)C(=O)N[C@@H](CCCNC(=N)N)C(=O)N[C@@H](C)C(=O)N3)NC(=O)[C@H](CCCNC(=N)N)NC(=O)[C@H](CC(C)C)NC(=O)CNC(=O)[C@H](CCC(=O)O)NC2=O [compound 563] | 126 |  |  |
| C#CC[C@H](N)C(=O)N[C@@H](Cc1ccc(O)cc1)C(=O)N[C@H]1CSSC[C@@H]2NC(=O)[C@@H]3CSSC[C@@H](C(=O)N[C@@H](CCCNC(=N)N)C(=O)N[C@@H](CCCCN)C(=O)N[C@@H](CCC(=O)O)C(=O)N[C@H](C(N)=O)[C@@H](C)CC)NC(=O)[C@H](Cc4c[nH]c5ccccc45)NC(=O)[C@H](CC(C)C)NC(=O)[C@H](CCCCN)NC(=O)[C@H](CSSC[C@H](NC(=O)[C@H]([C@@H](C)O)NC(=O)[C@H](Cc4ccc5ccccc5c4)NC(=O)[C@H](CCCC)NC(=O)[C@H](Cc4c[nH]c5ccccc45)NC(=O)[C@H](CCCCN)NC(=O)[C@H](CCC(N)=O)NC1=O)C(=O)N[C@@H](CC(=O)O)C(=O)N[C@@H](CO)C(=O)N[C@@H](CCCCN)C(=O)N[C@@H](CCCNC(=N)N)C(=O)N[C@@H](C)C(=O)N3)NC(=O)[C@H](CCCNC(=N)N)NC(=O)[C@H](CC(C)C)NC(=O)CNC(=O)[C@H](CCC(=O)O)NC2=O [compound 847] |  | 470 |  |
| C#CC[C@H](N)C(=O)N[C@@H](Cc1ccc(O)cc1)C(=O)N[C@H]1CSSC[C@@H]2NC(=O)[C@@H]3CSSC[C@@H](C(=O)N[C@@H](CCCNC(=N)N)C(=O)N[C@@H](CCCCN)C(=O)N[C@@H](CCC(=O)O)C(=O)N[C@H](C(N)=O)[C@@H](C)CC)NC(=O)[C@H](Cc4c[nH]c5ccccc45)NC(=O)[C@H](CC(C)C)NC(=O)[C@H](CCCCN)NC(=O)[C@H](CSSC[C@H](NC(=O)[C@H]([C@@H](C)O)NC(=O)[C@H](Cc4c[nH]c5ccccc45)NC(=O)[C@H](CCCC)NC(=O)[C@H](Cc4c[nH]c5ccccc45)NC(=O)[C@H](CCCCN)NC(=O)[C@H](CCC(N)=O)NC1=O)C(=O)N[C@@H](CC(=O)O)C(=O)N[C@@H](CO)C(=O)N[C@@H](CCCCN)C(=O)N[C@@H](CCCNC(=N)N)C(=O)N[C@@H](C)C(=O)N3)NC(=O)[C@H](CCCNC(=N)N)NC(=O)[C@H](CCCNC(=N)N)NC(=O)CNC(=O)[C@H](CCC(=O)O)NC2=O [compound 705] |  | > 1000 |  |
| C#CC[C@H](N)C(=O)N[C@@H](Cc1ccc(O)cc1)C(=O)N[C@H]1CSSC[C@@H]2NC(=O)[C@@H]3CSSC[C@@H](C(=O)N[C@@H](CCCNC(=N)N)C(=O)N[C@@H](CCCCN)C(=O)N[C@@H](CCC(=O)O)C(=O)N[C@H](C(N)=O)[C@@H](C)CC)NC(=O)[C@H](Cc4c[nH]c5ccccc45)NC(=O)[C@H](CC(C)C)NC(=O)[C@H](CCCCN)NC(=O)[C@H](CSSC[C@H](NC(=O)[C@H]([C@@H](C)O)NC(=O)[C@H](Cc4c[nH]c5ccccc45)NC(=O)[C@H](CCCC)NC(=O)[C@H](Cc4ccc5ccccc5c4)NC(=O)[C@H](CCCCN)NC(=O)[C@H](CCC(N)=O)NC1=O)C(=O)N[C@@H](CC(=O)O)C(=O)N[C@@H](CO)C(=O)N[C@@H](CCCCN)C(=O)N[C@@H](CCCNC(=N)N)C(=O)N[C@@H](C)C(=O)N3)NC(=O)[C@H](CCCNC(=N)N)NC(=O)[C@H](CC(C)C)NC(=O)CNC(=O)[C@H](CCC(=O)O)NC2=O [compound 842] |  | 21.7 |  |
| C#CC[C@H](N)C(=O)N[C@@H](Cc1ccc(O)cc1)C(=O)N[C@H]1CSSC[C@@H]2NC(=O)[C@@H]3CSSC[C@@H](C(=O)N[C@@H](CCCNC(=N)N)C(=O)N[C@@H](CCCCN)C(=O)N[C@@H](CCC(=O)O)C(=O)N[C@H](C(N)=O)[C@@H](C)CC)NC(=O)[C@H](Cc4c[nH]c5ccccc45)NC(=O)[C@H](CCC)NC(=O)[C@H](CCCCN)NC(=O)[C@H](CSSC[C@H](NC(=O)[C@H]([C@@H](C)O)NC(=O)[C@H](Cc4c[nH]c5ccccc45)NC(=O)[C@H](CCCC)NC(=O)[C@H](Cc4c[nH]c5ccccc45)NC(=O)[C@H](CCCCN)NC(=O)[C@H](CCC(N)=O)NC1=O)C(=O)N[C@@H](CC(=O)O)C(=O)N[C@@H](CO)C(=O)N[C@@H](CCCCN)C(=O)N[C@@H](CCCNC(=N)N)C(=O)N[C@@H](C)C(=O)N3)NC(=O)[C@H](CCCNC(=N)N)NC(=O)[C@H](CC(C)C)NC(=O)CNC(=O)[C@H](CCC(=O)O)NC2=O [compound 857] |  | 3.03 |  |
| C#CC[C@H](N)C(=O)N[C@@H](Cc1ccc(O)cc1)C(=O)N[C@H]1CSSC[C@@H]2NC(=O)[C@@H]3CSSC[C@@H](C(=O)N[C@@H](CCCNC(=N)N)C(=O)N[C@@H](CCCCN)C(=O)N[C@@H](CCC(=O)O)C(=O)N[C@H](C(N)=O)[C@@H](C)CC)NC(=O)[C@H](Cc4ccccc4)NC(=O)[C@H](CC(C)C)NC(=O)[C@H](CCCCN)NC(=O)[C@H](CSSC[C@H](NC(=O)[C@H]([C@@H](C)O)NC(=O)[C@H](Cc4c[nH]c5ccccc45)NC(=O)[C@H](CCCC)NC(=O)[C@H](Cc4c[nH]c5ccccc45)NC(=O)[C@H](CCCCN)NC(=O)[C@H](CCC(N)=O)NC1=O)C(=O)N[C@@H](CC(=O)O)C(=O)N[C@@H](CO)C(=O)N[C@@H](CCCCN)C(=O)N[C@@H](CCCNC(=N)N)C(=O)N[C@@H](C)C(=O)N3)NC(=O)[C@H](CCCNC(=N)N)NC(=O)[C@H](CC(C)C)NC(=O)CNC(=O)[C@H](CCC(=O)O)NC2=O [compound 853] |  | 15.3 |  |
| C#CC[C@@H]1NC(=O)[C@@H]2CSSC[C@H](NC(=O)[C@@H](N)CC#N)C(=O)N[C@@H](CCC(N)=O)C(=O)N[C@@H](CCCCN)C(=O)N[C@@H](Cc3c[nH]c4ccccc34)C(=O)N[C@@H](CCCC)C(=O)N[C@@H](Cc3c[nH]c4ccccc34)C(=O)N[C@@H]([C@@H](C)O)C(=O)N[C@H]3CSSC[C@H](NC(=O)[C@H](CCCNC(=N)N)NC(=O)[C@H](CC(C)C)NC(=O)CNC1=O)C(=O)N[C@@H](CCC(N)=O)C(=O)N[C@@H](CC(C)C)C(=O)N[C@@H](Cc1c[nH]c4ccccc14)C(=O)N[C@H](C(=O)N[C@@H](CCCNC(=N)N)C(=O)N[C@@H](CCCCN)C(=O)N[C@@H](CCC(=O)O)C(=O)N[C@H](C(N)=O)[C@@H](C)CC)CSSC[C@H](NC(=O)[C@H](C)NC(=O)[C@H](CCCNC(=N)N)NC(=O)[C@H](CCCCN)NC(=O)[C@H](CO)NC(=O)[C@H](CC(=O)O)NC3=O)C(=O)N2 [compound 1680] |  | 47.6 |  |
| CCCC[C@@H]1NC(=O)[C@H](Cc2c[nH]c3ccccc23)NC(=O)[C@H](CCCCN)NC(=O)[C@H](CCC(N)=O)NC(=O)[C@@H](NC(=O)[C@H](Cc2ccc(O)cc2)NC(=O)[C@@H](N)CCCC)CSSC[C@@H]2NC(=O)[C@@H]3CSSC[C@@H](C(=O)N[C@@H](CCCNC(=N)N)C(=O)N[C@@H](CCCCN)C(=O)N[C@H](C(=O)N[C@H](C(N)=O)[C@@H](C)CC)[C@@H](C)CC)NC(=O)[C@H](Cc4c[nH]c5ccccc45)NC(=O)[C@H](CC(C)C)NC(=O)[C@H](CCCCN)NC(=O)[C@H](CSSC[C@H](NC(=O)[C@H]([C@@H](C)O)NC(=O)[C@H](Cc4c[nH]c5ccccc45)NC1=O)C(=O)N[C@@H](CC(=O)O)C(=O)N[C@@H](CO)C(=O)N[C@@H](CCCCN)C(=O)N[C@@H](CCCNC(=N)N)C(=O)N[C@@H](C)C(=O)N3)NC(=O)[C@H](CCCNC(=N)N)NC(=O)[C@H](CC(C)C)NC(=O)CNC(=O)[C@H](CCC(=O)O)NC2=O [compound 370] | 21 |  | 3729 |
| C#CC[C@@H]1NC(=O)[C@@H]2CSSC[C@H](NC(=O)[C@H](Cc3ccc(O)cc3)NC(=O)[C@@H](N)CC#N)C(=O)N[C@@H](CCC(N)=O)C(=O)N[C@@H](CCCCN)C(=O)N[C@@H](Cc3c[nH]c4ccccc34)C(=O)N[C@@H](CCCC)C(=O)N[C@@H](Cc3c[nH]c4ccccc34)C(=O)N[C@@H]([C@@H](C)O)C(=O)N[C@H]3CSSC[C@H](NC(=O)[C@H](CCCNC(=N)N)NC(=O)[C@H](CC(C)C)NC(=O)CNC1=O)C(=O)N[C@@H](CCCCN)C(=O)N[C@@H](CC(C)C)C(=O)N[C@@H](Cc1c[nH]c4cc(Br)ccc14)C(=O)N[C@H](C(=O)N[C@@H](CCCNC(=N)N)C(=O)N[C@@H](CCCCN)C(=O)N[C@@H](CCC(=O)O)C(=O)N[C@H](C(N)=O)[C@@H](C)CC)CSSC[C@H](NC(=O)[C@H](C)NC(=O)[C@H](CCCNC(=N)N)NC(=O)[C@H](CCCCN)NC(=O)[C@H](CO)NC(=O)[C@H](CC(=O)O)NC3=O)C(=O)N2 [compound 873] |  | 8.47 |  |
| CCCC[C@@H]1NC(=O)[C@H](Cc2c[nH]c3ccccc23)NC(=O)[C@H](CCCCN)NC(=O)[C@H](CCC(N)=O)NC(=O)[C@@H](NC(=O)[C@H](Cc2ccc(O)cc2)NC(=O)[C@H](CC(C)C)NC)CSSC[C@@H]2NC(=O)[C@@H]3CSSC[C@@H](C(=O)N[C@@H](CCCNC(=N)N)C(=O)N[C@@H](CCCCN)C(=O)N[C@@H](CCC(=O)O)C(=O)N[C@H](C(N)=O)[C@@H](C)CC)NC(=O)[C@H](Cc4c[nH]c5ccccc45)NC(=O)[C@H](CC(C)C)NC(=O)[C@H](CCCCN)NC(=O)[C@H](CSSC[C@H](NC(=O)[C@H]([C@@H](C)O)NC(=O)[C@H](Cc4c[nH]c5ccccc45)NC1=O)C(=O)N[C@@H](CC(=O)O)C(=O)N[C@@H](CO)C(=O)N[C@@H](CCCCN)C(=O)N[C@@H](CCCNC(=N)N)C(=O)N[C@@H](C)C(=O)N3)NC(=O)[C@H](CCCNC(=N)N)NC(=O)[C@H](CC(C)C)NC(=O)CNC(=O)[C@H](CCCCNC(=O)CCOCCOCCOCCOCCOCCOCCOCCOCCOCCOCCOCCOCCN)NC2=O [compound 466] | 19 |  |  |
